Molecular target: Aβ42 (Homo sapiens, UniProt P05067)
Experiment: Th-T (thioflavin-T) assay of Aβ42 aggregation
Format: biochemical
Details: for Th-T fluorescence of Aβ42 with compound, mean of three wells (Fig. 7a source data): concentration 50, unit not given

Aβ42, sequence (P05067 672-713): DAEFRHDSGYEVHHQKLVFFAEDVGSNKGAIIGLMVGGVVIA

SMILES: C=C1CC[C@@H]2[C@](C)(CC[C@H]3O[C@H](C=C(C)C)C[C@@]23C)[C@@H]1Cc1c(OC)oc(CO)c(C(=O)OC)c1=O [Compound 21]
- Th-T fluorescence of Aβ42 with compound, mean of three wells (Fig. 7a source data) (time-course reading M143): 0.5052
- Th-T fluorescence of Aβ42 with compound, mean of three wells (Fig. 7a source data) (time-course reading M144): 0.5053
- Th-T fluorescence of Aβ42 with compound, mean of three wells (Fig. 7a source data) (time-course reading M145): 0.5045
- Th-T fluorescence of Aβ42 (sheet Fig. 7a), mean of three wells (head suffix _10 (concentration 10), reading M63): 0.5289
- Th-T fluorescence of Aβ42 (sheet Fig. 7a), mean of three wells (head suffix _10 (concentration 10), reading M64): 0.6173
- Th-T fluorescence of Aβ42 (sheet Fig. 7a), mean of three wells (head suffix _10 (concentration 10), reading M65): 0.6561
- Th-T fluorescence of Aβ42 (sheet Fig. 7a), mean of three wells (head suffix _10 (concentration 10), reading M66): 0.6931
- Th-T fluorescence of Aβ42 (sheet Fig. 7a), mean of three wells (head suffix _10 (concentration 10), reading M67): 0.7435
- Th-T fluorescence of Aβ42 (sheet Fig. 7a), mean of three wells (head suffix _10 (concentration 10), reading M68): 0.7523
- Th-T fluorescence of Aβ42 (sheet Fig. 7a), mean of three wells (head suffix _10 (concentration 10), reading M69): 0.7892
- Th-T fluorescence of Aβ42 (sheet Fig. 7a), mean of three wells (head suffix _10 (concentration 10), reading M70): 0.7946
- Th-T fluorescence of Aβ42 (sheet Fig. 7a), mean of three wells (head suffix _10 (concentration 10), reading M71): 0.8033
- Th-T fluorescence of Aβ42 (sheet Fig. 7a), mean of three wells (head suffix _10 (concentration 10), reading M72): 0.7933
- Th-T fluorescence of Aβ42 (sheet Fig. 7a), mean of three wells (head suffix _10 (concentration 10), reading M73): 0.8223
- Th-T fluorescence of Aβ42 (sheet Fig. 7a), mean of three wells (head suffix _10 (concentration 10), reading M74): 0.8738
- Th-T fluorescence of Aβ42 (sheet Fig. 7a), mean of three wells (head suffix _10 (concentration 10), reading M75): 0.8711
- Th-T fluorescence of Aβ42 (sheet Fig. 7a), mean of three wells (head suffix _10 (concentration 10), reading M76): 0.921
- Th-T fluorescence of Aβ42 (sheet Fig. 7a), mean of three wells (head suffix _10 (concentration 10), reading M77): 0.9791
- Th-T fluorescence of Aβ42 (sheet Fig. 7a), mean of three wells (head suffix _10 (concentration 10), reading M78): 1.0381
- Th-T fluorescence of Aβ42 (sheet Fig. 7a), mean of three wells (head suffix _10 (concentration 10), reading M79): 1.098
- Th-T fluorescence of Aβ42 (sheet Fig. 7a), mean of three wells (head suffix _10 (concentration 10), reading M80): 1.155
- Th-T fluorescence of Aβ42 (sheet Fig. 7a), mean of three wells (head suffix _10 (concentration 10), reading M81): 1.227
- Th-T fluorescence of Aβ42 (sheet Fig. 7a), mean of three wells (head suffix _10 (concentration 10), reading M82): 1.285
- Th-T fluorescence of Aβ42 (sheet Fig. 7a), mean of three wells (head suffix _10 (concentration 10), reading M83): 1.378
- Th-T fluorescence of Aβ42 (sheet Fig. 7a), mean of three wells (head suffix _10 (concentration 10), reading M84): 1.428
- Th-T fluorescence of Aβ42 (sheet Fig. 7a), mean of three wells (head suffix _20 (concentration 20), reading M63): 0.2431
- Th-T fluorescence of Aβ42 (sheet Fig. 7a), mean of three wells (head suffix _20 (concentration 20), reading M64): 0.2464
- Th-T fluorescence of Aβ42 (sheet Fig. 7a), mean of three wells (head suffix _20 (concentration 20), reading M65): 0.2511
- Th-T fluorescence of Aβ42 (sheet Fig. 7a), mean of three wells (head suffix _20 (concentration 20), reading M66): 0.2535
- Th-T fluorescence of Aβ42 (sheet Fig. 7a), mean of three wells (head suffix _20 (concentration 20), reading M67): 0.2562
- Th-T fluorescence of Aβ42 (sheet Fig. 7a), mean of three wells (head suffix _20 (concentration 20), reading M68): 0.2616
- Th-T fluorescence of Aβ42 (sheet Fig. 7a), mean of three wells (head suffix _20 (concentration 20), reading M69): 0.2677
- Th-T fluorescence of Aβ42 (sheet Fig. 7a), mean of three wells (head suffix _20 (concentration 20), reading M70): 0.2739
- Th-T fluorescence of Aβ42 (sheet Fig. 7a), mean of three wells (head suffix _20 (concentration 20), reading M71): 0.2831
- Th-T fluorescence of Aβ42 (sheet Fig. 7a), mean of three wells (head suffix _20 (concentration 20), reading M72): 0.2882
- Th-T fluorescence of Aβ42 (sheet Fig. 7a), mean of three wells (head suffix _20 (concentration 20), reading M73): 0.2974
- Th-T fluorescence of Aβ42 (sheet Fig. 7a), mean of three wells (head suffix _20 (concentration 20), reading M74): 0.3106
- Th-T fluorescence of Aβ42 (sheet Fig. 7a), mean of three wells (head suffix _20 (concentration 20), reading M75): 0.3227
- Th-T fluorescence of Aβ42 (sheet Fig. 7a), mean of three wells (head suffix _20 (concentration 20), reading M76): 0.3296
- Th-T fluorescence of Aβ42 (sheet Fig. 7a), mean of three wells (head suffix _20 (concentration 20), reading M77): 0.3505
- Th-T fluorescence of Aβ42 (sheet Fig. 7a), mean of three wells (head suffix _20 (concentration 20), reading M78): 0.3679
- Th-T fluorescence of Aβ42 (sheet Fig. 7a), mean of three wells (head suffix _20 (concentration 20), reading M79): 0.3859
- Th-T fluorescence of Aβ42 (sheet Fig. 7a), mean of three wells (head suffix _20 (concentration 20), reading M80): 0.4085
- Th-T fluorescence of Aβ42 (sheet Fig. 7a), mean of three wells (head suffix _20 (concentration 20), reading M81): 0.4348
- Th-T fluorescence of Aβ42 (sheet Fig. 7a), mean of three wells (head suffix _20 (concentration 20), reading M82): 0.4734
- Th-T fluorescence of Aβ42 (sheet Fig. 7a), mean of three wells (head suffix _20 (concentration 20), reading M83): 0.5074
- Th-T fluorescence of Aβ42 (sheet Fig. 7a), mean of three wells (head suffix _20 (concentration 20), reading M84): 0.5384
- Th-T fluorescence of Aβ42 (sheet Fig. 7a), mean of three wells (head suffix _50 (concentration 50), reading M63): 0.2314
- Th-T fluorescence of Aβ42 (sheet Fig. 7a), mean of three wells (head suffix _50 (concentration 50), reading M64): 0.2365
- Th-T fluorescence of Aβ42 (sheet Fig. 7a), mean of three wells (head suffix _50 (concentration 50), reading M65): 0.2406
- Th-T fluorescence of Aβ42 (sheet Fig. 7a), mean of three wells (head suffix _50 (concentration 50), reading M66): 0.2402
- Th-T fluorescence of Aβ42 (sheet Fig. 7a), mean of three wells (head suffix _50 (concentration 50), reading M67): 0.2439
- Th-T fluorescence of Aβ42 (sheet Fig. 7a), mean of three wells (head suffix _50 (concentration 50), reading M68): 0.2485
- Th-T fluorescence of Aβ42 (sheet Fig. 7a), mean of three wells (head suffix _50 (concentration 50), reading M69): 0.2533
- Th-T fluorescence of Aβ42 (sheet Fig. 7a), mean of three wells (head suffix _50 (concentration 50), reading M70): 0.2583
- Th-T fluorescence of Aβ42 (sheet Fig. 7a), mean of three wells (head suffix _50 (concentration 50), reading M71): 0.2613
- Th-T fluorescence of Aβ42 (sheet Fig. 7a), mean of three wells (head suffix _50 (concentration 50), reading M72): 0.2693

Reference: paper PMC7156458, “Synthetic biology based construction of biological activity-related library of fungal decalin-containing diterpenoid pyrones” (Nature Communications, 2020)
